The text below walks through data of patent publication US20090275667A1, “USE OF ALLICIN AS PRESERVATIVE, AS DISINFECTANT, AS ANTIMICROBIAL OR AS BIOCIDAL AGENT” (Stone Island Holdings Ltd, priority 2003, published 2009).

Common to all, as to assay type: cell-based
The subject of assay [1] is Paenibacillus larvae subsp. pulvifaciens. Briefly: MIC by broth microdilution, bee pathogens. The note with it: range 1000 ppm to 0.25 ppm. An excerpt:
(§1) We tested allicia (Allisure™ Liquid) activity against several species of entomopathogenic bacteria (Paenibacillus larvae subsp. larvae, Paenibacillus larvae subsp. pulvifaciens) and fungi (Ascosphaera apis and Ascosphaera aggregata) using broth microdilution method to determine minimum inhibitory concentration (MIC) and the agar diffusion test (Kirby-Bauer) to determine zone of inhibition. Bacterial spores were isolated from the diseased honey bee larval samples. A small aliquot of heat-treated bacterial spores was suspended in 100 μl of phosphate buffered saline-pH 7.2 (PBS) and plated on semi-selective J. Agar medium, containing Nalidixic and Pipemidic acid (Alippi, A M (1995) Detection of Bacillus larvae spores in Argentinian honeys by using a semi-selective medium. Microbiologia 1995 11(3): 343-50; and Govan, V A; Allsopp, M H; Davison, S A (1999) PCR Detection Method for Rapid Identification of Paenibacillus larvae. Applied and Environmental Microbiology 65(5): 2243-2245.
(§2) The plates were incubated at 33° C. in air containing 6% CO2 and 95% RH. The initial species identification was based on morphological, biological and cultural characteristics. The bacterial culture was tested for a catalase reaction (Leboffe, M. J and Pierce, B e (1999) A photographic atlas for the microbiology laboratory. Morton Publishing Company. 254 pp). The bacterial colonies were characterized by shape, margins and color. Gram-positive stained smears (Gram-stain Reagents Kit, EMD Chemicals Inc., NJ) were examined for morphological identification of vegetative cells and spores.
(§3) DNA based PCR identification was performed to corroborate identification of the bacterial species. Bacterial cells from culture plates were added directly to 30 μl of PCR reaction. The PCR primers used in the reaction were based on the 16S RNA sequence to selectively amplify a fragment of 973 by unique to P. larvae (Govan et al., 1999). The PCR products were visualized by 0.8% agarose gel electrophoresis in TAE buffer and ethidium bromide staining. The reference strains of bacteria were used as a control in PCR reactions and were provided by the National Center for Agricultural Research, Peoria, Ill. P. l. larvae (NRRL B-3560, B-2605) and P. l. palvifaciens (NRRL B-3688, B-3685, B-3689, NRS-1687, P. alvei B383).
(§4) Positive controls contained the antibiotic Tylosin (Tylan® 50, Elanco Animal Health Inc., IN) and negative controls contained no antibiotics. […] The optical densities of cultures (OD 600) were recorded 24 h and 48 h post inoculation, depending on the growth rate of the microbial species. […] Minimum bactericidal concentration values (NBC) were determined for allicin by plating out 100 μl of bacterial cultures derived from the MIC assay. […]
(In general: In broth dilution the organism is exposed to a series of concentrations in liquid medium.)

The subject of assay [2] is Paenibacillus larvae subsp. larvae. Briefly: MIC by broth microdilution, bee pathogens. The settings on record: range 1000 ppm to 0.25 ppm.
Excerpt: as §1, §2, §3, §4

Assay [3] deals with Ascosphaera apis. Briefly: Disk diffusion test (Kirby-Bauer), zone of inhibition. The settings on record: 6 mm paper disc containing 5 μg of tylosin. How it is done:
(§5) Allicin (Allisure™ Liquid) was tested against bacterial and fungal pathogens using a standard disk diffusion method (per Norrell & Messley). The aliquots of bacterial or fungal spores (100 μl of approximately 10^8-10^9 spores/ml) were plated on Mueller-Hinton agar medium, 4.0 mm depth. The 6 mm paper discs containing 250 μg of allicin or 5 μg of tylosin (positive control) were placed in the center of each plate. Plates were incubated at 33° C. and 6% CO2 and a zone of inhibition was measured 24 h, 48 h or 76 h post inoculation depending on the microbial species. All experiments were replicated at least three times.
In general terms: A growth-free zone around the sample is the usual read-out of agar diffusion tests.

Assay [4] relates to Ascosphaera aggregata. The description is as above. The settings on record: 6 mm paper disc containing 5 μg of tylosin. On the procedure:
as §5

Assay [5] has as its system Paenibacillus larvae subsp. pulvifaciens. The description is as above. The settings on record: 6 mm paper disc containing 5 μg of tylosin. How it is done:
as §5

Assay [6] deals with Paenibacillus larvae subsp. larvae. Described as above. The note with it: 6 mm paper disc containing 5 μg of tylosin. On the procedure:
as §5

SMILES strings stand for the structures.

In the case of `CC[C@H]1OC(=O)C[C@@H](O)[C@H](C)[C@@H](O[C@@H]2O[C@H](C)[C@@H](O[C@H]3C[C@@](C)(O)[C@@H](O)[C@H](C)O3)[C@H](N(C)C)[C@H]2O)[C@@H](CC=O)C[C@@H](C)C(=O)/C=C/C(C)=C/[C@@H]1CO[C@@H]1O[C@H](C)[C@@H](O)[C@@H](OC)[C@H]1OC` [tylosin, reference compound], the MIC in assay [1] and in assay [2] was less than 0.25 µg/mL throughout. Further, the zone of inhibition in assay [3] is listed as 0.0 mm; in assay [4], 0.0 mm; in assay [5] it was 14-16 mm. Also, the “growth inhibition in agar diffusion test” value in assay [6] is on record as “completely inhibited”.

As a reminder, the MIC is the lowest concentration that inhibits growth of the organism. Lower therefore signals inhibition by little substance. A word on the zone of inhibition: it is the size of the clear area around the sample on an inoculated plate. High values mean a stronger effect on the plate, low ones a weaker effect on the plate.
